Measured values as given in US7892776B2, “Screening assay to identify modulators of protein kinase A” (The Regents of the University of California, priority 2007, dated 2011).
No end group written: not given here.

What was measured:
[1] = target: C-subunit of protein kinase A (Mus musculus, UniProt P05132, C200A); experiment: biochemical
type Iα PKA holoenzyme = target: T1, type Iα PKA holoenzyme (Bos taurus, UniProt P00514); experiment: High throughput FP assay format (TR-IP20, C-subunit, R-subunit, cGMP); format: binding; conditions: for reduction in FP signal due to competition with ATP: HTS format, compound at 200 μM, 2 mM ATP; for HTS result (agonist / antagonist by FP reading versus 3 μM cGMP alone): tested at 25 μM, 40 nM TR-IP20
T1 construct: made in house; host or cells: E. coli
Experimental: The high throughput screening (HTS) was performed by addition of 1 μL of a test compound in DMSO to 49 μL buffer containing TR-IP20, C-subunit, R-subunit, and cGMP.
An agonistic Z′-factor was calculated between the half maximal and maximal FP response, while the antagonistic Z′-factor was calculated between the minimal and half maximal FP response. The maximal FP response was calculated by adding 1 μL cGMP in DMSO (500 μM final) to 49 μL HTS mix. Half maximal binding was calculated when 1 μL DMSO was used instead and minimal FP response was calculated by adding 1 μL Rp-8-Br-cAMPS in DMSO (50 μM final). Final DMSO concentration was 2%.
Antagonism by Rp-8-Br-cAMPS was measured with the HTS format.
Finally, to validate the assay, screening was performed on a selection of nucleotide and xanthine derivatives. […] Included in Set 1 are the known PKA effectors 8-Cl-cAMP (agonist) and Rp-8-Br-cAMPS (antagonist).

PKA C-subunit = PKA C-subunit (Homo sapiens, UniProt P17612); conditions: cited from earlier work

T1 sequence (P00514 with tags, fused parts or gaps): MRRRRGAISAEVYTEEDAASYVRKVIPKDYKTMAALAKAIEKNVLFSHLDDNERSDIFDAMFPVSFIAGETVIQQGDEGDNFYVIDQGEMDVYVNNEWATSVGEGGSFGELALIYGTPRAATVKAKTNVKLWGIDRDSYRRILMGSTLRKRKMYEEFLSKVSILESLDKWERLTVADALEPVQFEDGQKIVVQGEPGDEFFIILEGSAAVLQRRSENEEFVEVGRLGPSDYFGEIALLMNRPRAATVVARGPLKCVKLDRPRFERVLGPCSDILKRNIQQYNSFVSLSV

Row | Compound | reduction in FP signal due to competition with ATP (type Iα PKA holoenzyme) | HTS result (agonist / antagonist by FP reading versus 3 μM cGMP alone) (type Iα PKA holoenzyme) | other results
1 | GRTGRRNAIHD-NH2 [PKI (14-24)] |  |  | IC50 [1]: 2.7 µM
2 | CN[C@@H]1C[C@H]2O[C@@](C)([C@@H]1OC)n1c3ccccc3c3c4c(c5c6ccccc6n2c5c31)C(=O)NC4 [staurosporine] | no reduction in FP signal |  | 
3 | Nc1ncnc2c1ncn2[C@@H]1O[C@H](COP(=O)(O)OP(=O)(O)OP(=O)(O)O)[C@@H](O)[C@H]1O [ATP] |  |  | enhancement of the affinity of the C-subunit for ATP (PKA C-subunit; in the presence of the R-subunit or IP20, literature (Lew et al. 1997)): over 2000 fold; Kd (PKA C-subunit; read-out: affinity of ATP for the PKA C-subunit): ~25 µM
4 | Nc1ncnc2c1nc(Br)n2C1OC2COP(O)(=S)OC2C1O (stereo not shown) [Rp-8-Br-cAMPS] |  | antagonist | 
5 | O=S(=O)(NCCNCC=Cc1ccc(Br)cc1)c1cccc2cnccc12 [H89, N-[2-(p-bromocinnamylamino)ethyl]-5-isoquinolinesulfonamide] | no reduction in FP signal |  | 
6 | Nc1ncnc2c1nc(Cl)n2[C@@H]1O[C@@H]2COP(=O)(O)O[C@H]2[C@H]1O [8-Cl-cAMP] |  | agonist | 
